Experimental data from US20210122730A1, “GLUCOCORTICOID RECEPTOR MODULATORS” (ORIC Pharmaceuticals, Inc., priority 2017, published 2021).

Assays:
GR = biological target: T1, GR (Homo sapiens, UniProt P04150); assay: In Vitro GR Luciferase Reporter Assay (antagonist mode, CHO-K1-GR-MMTV-Luc reporter cells); type: cell-based; settings: antagonist mode, 10 nM Dexamethasone
T1 construct: expressed in transfected cells; host or cells: CHO-K1
T1 sequence (P04150 1-777): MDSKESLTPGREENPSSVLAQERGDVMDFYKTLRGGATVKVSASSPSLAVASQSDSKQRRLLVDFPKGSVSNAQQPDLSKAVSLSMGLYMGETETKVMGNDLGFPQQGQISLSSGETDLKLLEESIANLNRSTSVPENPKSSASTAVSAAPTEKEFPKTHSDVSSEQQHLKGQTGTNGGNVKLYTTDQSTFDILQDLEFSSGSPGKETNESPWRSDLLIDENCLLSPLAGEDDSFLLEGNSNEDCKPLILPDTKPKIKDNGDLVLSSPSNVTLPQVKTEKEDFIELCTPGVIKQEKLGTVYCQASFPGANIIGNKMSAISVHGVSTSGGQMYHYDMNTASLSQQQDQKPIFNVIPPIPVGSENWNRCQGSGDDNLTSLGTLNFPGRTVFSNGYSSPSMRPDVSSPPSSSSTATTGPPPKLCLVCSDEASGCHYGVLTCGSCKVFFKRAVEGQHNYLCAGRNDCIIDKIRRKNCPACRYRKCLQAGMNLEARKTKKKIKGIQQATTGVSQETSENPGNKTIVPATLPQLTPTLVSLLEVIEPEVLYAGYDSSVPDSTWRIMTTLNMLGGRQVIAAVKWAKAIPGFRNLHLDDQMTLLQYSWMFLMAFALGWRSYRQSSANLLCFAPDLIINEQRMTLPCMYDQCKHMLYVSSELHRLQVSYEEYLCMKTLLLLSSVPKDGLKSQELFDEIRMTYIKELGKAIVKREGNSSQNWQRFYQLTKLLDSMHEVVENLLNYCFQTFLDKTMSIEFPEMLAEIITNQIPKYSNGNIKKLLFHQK
In short: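 Antagonist mode: compounds (8 serial 1:5 dilutions) added to GR-MMTV-luciferase CHO-K1 reporter cells co-exposed to 10 nM dexamethasone final, in phenol red-free DMEM plus 10% CSS. After roughly 18-24 h at 37° C, OneGlo luminescence read and IC50 calculated.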

CYP2C8 = biological target: T2, CYP2C8 (Homo sapiens, UniProt P10632); assay: CYP Inhibition Assay (CYP2C8, human liver microsomes, paclitaxel substrate); type: in vitro ADME; settings: pH 7.4; pooled human liver microsomes 0.1 mg/mL, probe substrate paclitaxel
T2 construct: Pooled human microsomes were obtained from Sekisui XenoTech, KS; tissue Sekisui XenoTech, KS; host or cells: pooled human liver microsomes
T2 sequence (P10632 1-490): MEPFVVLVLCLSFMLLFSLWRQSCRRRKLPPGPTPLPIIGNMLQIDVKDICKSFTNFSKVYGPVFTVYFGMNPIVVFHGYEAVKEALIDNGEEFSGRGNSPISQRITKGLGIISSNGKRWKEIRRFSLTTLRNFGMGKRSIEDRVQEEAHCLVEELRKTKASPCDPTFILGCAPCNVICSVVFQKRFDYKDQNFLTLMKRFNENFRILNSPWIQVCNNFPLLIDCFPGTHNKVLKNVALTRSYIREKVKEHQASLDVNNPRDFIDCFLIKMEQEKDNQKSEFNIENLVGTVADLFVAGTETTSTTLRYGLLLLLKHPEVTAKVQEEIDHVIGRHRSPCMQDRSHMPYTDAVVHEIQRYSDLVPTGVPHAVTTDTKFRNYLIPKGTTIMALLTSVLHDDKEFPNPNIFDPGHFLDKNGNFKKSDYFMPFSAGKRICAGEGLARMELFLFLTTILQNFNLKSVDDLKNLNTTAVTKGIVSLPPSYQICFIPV
In short: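 CYP2C8 activity read as 6α-hydroxypaclitaxel formation by LC-MS/MS, with % inhibition versus vehicle control. Reactions ran 5 min at 37° C, pH 7.4 phosphate buffer, 0.1 mg/mL pooled human liver microsomes, 1 mM NADPH, duplicate wells.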

IC50 (GR) [µM] | inhibition at 5 min (CYP2C8) [%] | SMILES
≤ 0.1 | 25 to 50 | Cn1cnc(S(=O)(=O)N(C2CC(F)(F)C2)[C@H]2CCC3=Cc4c(cnn4-c4ccc(F)cc4)C[C@]3(C(=O)c3ncc(C(F)(F)F)s3)C2)n1 [Example 324, N-(3,3-difluorocyclobutyl)-N-((4aS,6S)-1-(4-fluorophenyl)-4a-(5-(trifluoromethyl)thiazole-2-carbonyl)-4,4a,5,6,7,8-hexahydro-1H-benzo[f]indazol-6-yl)-1-methyl-1H-1,2,4-triazole-3-sulfonamide]
≤ 0.1 | ≤ 25 | Cn1cnc(S(=O)(=O)N(C2CC(F)(F)C2)[C@H]2CCC3=Cc4c(cnn4-c4ccc(F)cc4)C[C@]3(C(=O)c3cc(C(F)(F)F)ccn3)C2)c1 [Example 325, N-(3,3-difluorocyclobutyl)-N-((4aS,6S)-1-(4-fluorophenyl)-4a-(4-(trifluoromethyl)picolinoyl)-4,4a,5,6,7,8-hexahydro-1H-benzo[f]indazol-6-yl)-1-methyl-1H-imidazole-4-sulfonamide]
≤ 0.1 | 50 to 75 | Cn1ccc(S(=O)(=O)N([C@H]2CCC3=Cc4c(cnn4-c4ccc(F)cc4)C[C@]3(C(=O)c3ncc(C(F)(F)F)s3)C2)[C@H]2C[C@](C)(O)C2)n1 [Example 326, N-((4aS,6S)-1-(4-fluorophenyl)-4a-(5-(trifluoromethyl)thiazole-2-carbonyl)-4,4a,5,6,7,8-hexahydro-1H-benzo[f]indazol-6-yl)-N-((1r,3S)-3-hydroxy-3-methylcyclobutyl)-1-methyl-1H-pyrazole-3-sulfonamide]
≤ 0.1 | 25 to 50 | CC(C)N([C@H]1CCC2=Cc3c(cnn3-c3ccc(F)cc3)C[C@]2(C(=O)c2ncc(C(F)(F)F)s2)C1)S(=O)(=O)c1ncn(C)n1 [Example 327, N-((4aS,6S)-1-(4-fluorophenyl)-4a-(5-(trifluoromethyl)thiazole-2-carbonyl)-4,4a,5,6,7,8-hexahydro-1H-benzo[f]indazol-6-yl)-N-isopropyl-1-methyl-1H-1,2,4-triazole-3-sulfonamide]
≤ 0.1 | 25 to 50 | CC(C)N([C@H]1CCC2=Cc3c(cnn3-c3ccc(F)cc3)C[C@]2(C(=O)c2cc(C(F)(F)F)ccn2)C1)S(=O)(=O)c1ncn(C)n1 [Example 328, N-((4aS,6S)-1-(4-fluorophenyl)-4a-(4-(trifluoromethyl)picolinoyl)-4,4a,5,6,7,8-hexahydro-1H-benzo[f]indazol-6-yl)-N-isopropyl-1-methyl-1H-1,2,4-triazole-3-sulfonamide]
≤ 0.1 | 25 to 50 | Cn1cnc(S(=O)(=O)N(C2CC(F)(F)C2)[C@H]2CCC3=Cc4c(cnn4-c4ccc(F)cc4)C[C@]3(C(=O)c3cc(C(F)(F)F)ccn3)C2)n1 [Example 329, N-(3,3-difluorocyclobutyl)-N-((4aS,6S)-1-(4-fluorophenyl)-4a-(4-(trifluoromethyl)picolinoyl)-4,4a,5,6,7,8-hexahydro-1H-benzo[f]indazol-6-yl)-1-methyl-1H-1,2,4-triazole-3-sulfonamide]
≤ 0.1 | 25 to 50 | Cn1cnc(S(=O)(=O)N(CC(F)F)[C@H]2CCC3=Cc4c(cnn4-c4ccc(F)cc4)C[C@]3(C(=O)c3cc(C(F)(F)F)ccn3)C2)n1 [Example 330, N-(2,2-difluoroethyl)-N-((4aS,6S)-1-(4-fluorophenyl)-4a-(4-(trifluoromethyl)picolinoyl)-4,4a,5,6,7,8-hexahydro-1H-benzo[f]indazol-6-yl)-1-methyl-1H-1,2,4-triazole-3-sulfonamide]
≤ 0.1 | ≤ 25 | Cn1cnc(S(=O)(=O)N(CC(F)F)[C@H]2CCC3=Cc4c(cnn4-c4ccc(F)cc4)C[C@]3(C(=O)c3ncc(C(F)(F)F)s3)C2)n1 [Example 331, N-(2,2-difluoroethyl)-N-((4aS,6S)-1-(4-fluorophenyl)-4a-(5-(trifluoromethyl)thiazole-2-carbonyl)-4,4a,5,6,7,8-hexahydro-1H-benzo[f]indazol-6-yl)-1-methyl-1H-1,2,4-triazole-3-sulfonamide]
≤ 0.1 | ≤ 25 | Cn1cnc(S(=O)(=O)N(C2CC(F)(F)C2)[C@H]2CCC3=Cc4c(cnn4-c4ccc(F)cc4)C[C@]3(C(=O)c3ncc(C(F)(F)F)s3)C2)c1 [Example 332, N-(3,3-difluorocyclobutyl)-N-((4aS,6S)-1-(4-fluorophenyl)-4a-(5-(trifluoromethyl)thiazole-2-carbonyl)-4,4a,5,6,7,8-hexahydro-1H-benzo[f]indazol-6-yl)-1-methyl-1H-imidazole-4-sulfonamide]
≤ 0.1 | ≤ 25 | O=C(c1ncc(C(F)(F)F)s1)[C@]12Cc3cnn(-c4ccc(F)cc4)c3C=C1CC[C@H](N(C1CC1)S(=O)(=O)c1ccc(Cl)cn1)C2 [Example 333, 5-chloro-N-cyclopropyl-N-((4aS,6S)-1-(4-fluorophenyl)-4a-(5-(trifluoromethyl)thiazole-2-carbonyl)-4,4a,5,6,7,8-hexahydro-1H-benzo[f]indazol-6-yl)pyridine-2-sulfonamide]
≤ 0.1 | 50 to 75 | O=C(c1cc(C(F)(F)F)ccn1)[C@]12Cc3cnn(-c4ccc(F)cc4)c3C=C1CC[C@H](N(C1CC1)S(=O)(=O)c1cncc(Cl)c1)C2 [Example 334, 5-chloro-N-cyclopropyl-N-((4aS,6S)-1-(4-fluorophenyl)-4a-(4-(trifluoromethyl)picolinoyl)-4,4a,5,6,7,8-hexahydro-1H-benzo[f]indazol-6-yl)pyridine-3-sulfonamide]
≤ 0.1 | ≤ 25 | Cn1cnc(S(=O)(=O)N(C2CC(F)(F)C2)[C@H]2CCC3=Cc4c(cnn4-c4ccc(F)cc4)C[C@]3(C(=O)c3cc(F)ccn3)C2)c1 [Example 335, N-(3,3-difluorocyclobutyl)-N-((4aS,6S)-1-(4-fluorophenyl)-4a-(4-fluoropicolinoyl)-4,4a,5,6,7,8-hexahydro-1H-benzo[f]indazol-6-yl)-1-methyl-1H-imidazole-4-sulfonamide]
≤ 0.1 | 50 to 75 | Cn1ccc(S(=O)(=O)N(CC(F)F)[C@H]2CCC3=Cc4c(cnn4-c4ccc(F)cc4)C[C@]3(C(=O)c3ncc(C(F)(F)F)s3)C2)n1 [Example 337, N-(2,2-difluoroethyl)-N-((4aS,6S)-1-(4-fluorophenyl)-4a-(5-(trifluoromethyl)thiazole-2-carbonyl)-4,4a,5,6,7,8-hexahydro-1H-benzo[f]indazol-6-yl)-1-methyl-1H-pyrazole-3-sulfonamide]
≤ 0.1 | 75 to 90 | Cn1ccc(S(=O)(=O)N(CC(F)F)[C@H]2CCC3=Cc4c(cnn4-c4ccc(F)cc4)C[C@]3(C(=O)c3cc(F)ccn3)C2)n1 [Example 338, N-(2,2-difluoroethyl)-N-((4aS,6S)-1-(4-fluorophenyl)-4a-(4-fluoropicolinoyl)-4,4a,5,6,7,8-hexahydro-1H-benzo[f]indazol-6-yl)-1-methyl-1H-pyrazole-3-sulfonamide]
≤ 0.1 | 25 to 50 | Cn1cnc(S(=O)(=O)N(C2CC(F)(F)C2)[C@H]2CCC3=Cc4c(cnn4-c4ccc(F)cc4)C[C@]3(C(=O)c3cc(Cl)ccn3)C2)c1 [Example 339, N-((4aS,6S)-4a-(4-chloropicolinoyl)-1-(4-fluorophenyl)-4,4a,5,6,7,8-hexahydro-1H-benzo[f]indazol-6-yl)-N-(3,3-difluorocyclobutyl)-1-methyl-1H-imidazole-4-sulfonamide]
≤ 0.1 | 25 to 50 | O=C(c1cc(C(F)(F)F)ccn1)[C@]12Cc3cnn(-c4ccc(F)cc4)c3C=C1CC[C@H](N(CC(F)F)S(=O)(=O)c1ccc(Cl)nc1)C2 [Example 341, 6-chloro-N-(2,2-difluoroethyl)-N-((4aS,6S)-1-(4-fluorophenyl)-4a-(4-(trifluoromethyl)picolinoyl)-4,4a,5,6,7,8-hexahydro-1H-benzo[f]indazol-6-yl)pyridine-3-sulfonamide]
